Laboratory results from US4618681A, “Aryl substituted 1H-4,5-dihydro-1,2,3-triazoles as anticonvulsants” (priority 1984, dated 1986).
Entries after “also recorded” stand apart in the source; their conditions may differ. Like-named read-outs stand apart in the source and are kept apart here.

Key:
[1] = animal or person; conditions: Mus musculus, sc, read-out: sc CD97 of bicuculline
Experimental: (§1) The profile of anticonvulsant activity for each substance was established by five tests: one electrical and four chemical. The electrical test employed was the maximal electroshock seizure pattern test. […] Except for the sc Strych Test, these tests measure the ability of anticonvulsants to afford complete protection against threshold seizures induced by the subcutaneous injection of the CD97 of the convulsant agent.
(§2) All convulsants were administered subcutaneously into a loose fold of skin on the back of the neck in a volume of 0.01 ml/g body weight in mice; Metrazol was injected in a volume of 0.02 ml/10 g body weight in rats. The convulsant drugs were administered at the previously determined time of peak anticonvulsant action of the drug under study. […] Except for strychnine, absence of a five-second episode of clonic spasms (threshold seizure) was taken as protection. In the case of strychnine, complete abolition of the hindleg tonic extension was taken as protection.

[2] = Subcutaneous Metrazol Seizure Threshold Test (sc Met) in rats; assay type: in vivo, rats (male albino, Sprague Dawley); conditions: for ED50: Rattus norvegicus, po, read-out: ED50 sc Met
Experimental: (§3) The drugs were administered either orally or intraperitoneally in a volume of 0.01 ml/g body weight in mice and 0.04 ml/10 g in rats. All tests were conducted at the previously determined time of peak drug effect.
as §1, §2

[3] = assay type: in vivo; conditions: Phase V, mice, i.p.
Experimental: as §1, §2

[4] = in vivo; design: species or system mice
Experimental: (§4) The profile of toxicity for each test drug was established by the following procedures: firstly, the minimal neurotoxic dose (TD50) was determined by the rotorod procedure at the time of peak neurotoxic effect. When a normal mouse is placed on a knurled rod one inch in diameter rotating at a speed of six rpm it can maintain its equilibrium for long periods of time. Neurological deficit is indicated by inability of the mouse to maintain its equilibrium for one minute in each of three trials on this rotating rod. Neurological deficit in rats is indicated by ataxia, loss of placing response and muscle tone. […] These observations also provide preliminary information essential for the subsequent determination of the HD50 and LD50. The HD50 represents the median dose at which 50% of animals lose their righting reflex.

[5] = not given; remark: listed apart in the source
[6] = not given; remark: listed apart in the source
[7] = Time of peak effect (TPE) over several tests in rats; conditions: p.o., Compound 9: toxicity, MES and sc Met tests
Experimental: as §3

[8] = Subcutaneous Metrazol Seizure Threshold Test (sc Met) in mice; conditions: for ED50: Mus musculus; for effectiveness by the sc Met test: Phase V
Experimental: (§5) All animals were allowed free access to both food (S/L Custom Lab Diet-7) and water, except when they were removed from their cages for the experimental procedure.
as §3, §1, §2

[9] = Maximal electroshock seizure (MES) pattern test in rats; assay type: in vivo, rats (male albino, Sprague Dawley)
Experimental: as §5, §3, §1

[10] = in vivo; conditions: mouse, in vivo; for selectivity ratio: mice, i.p.
Experimental: as §4

[11] = Phase III Toxicity Profile in mice i.p. (overt signs of toxicity); assay type: in vivo
Excerpt: […]. […] […]. […] […].

[12] = design: species or system mice; conditions: mouse, in vivo, ip, 1132 mg/kg
Experimental: Consequently, it was necessary to administer the high doses required for the righting reflex and 24-hour lethality tests in mice in double the volume. In view of this fact, additional studies were done to determine the effect of this double volume on the time of peak effect of the test substance. […] […]. Moreover, 1, 3, and 4 of the 8 mice were dead at 20, 40, and 46 hours, respectively. […] Accordingly, additional pharmacokinetic and pharmacodynamic studies will be done in order to reveal mechanisms that may contribute to the long TPE for neurotoxicity and the abnormally low ratio between the minimal-toxic dose and the 24-hour lethal dose.

[13] = Oral absorption in mice (oral/i.p. ratios); assay type: in vivo
Excerpt: The extent of oral absorption can be determined from the ratio of the oral ED50/i.p. […] In mice the oral TD50/i.p. TD50 and oral ED50/i.p.

[14] = mouse, in vivo
Experimental: as §5, §3, §1, §2

[15] = not given; remark: listed apart in the source
[16] = not given; remark: listed apart in the source
[17] = in vivo; conditions: mouse
Experimental: as §3, §4

[18] = in vivo; conditions: rat, po
Experimental: as §3, §4

[19] = Time of peak effect (TPE) over several tests in mice
Experimental: as §3

[20] = Phase I anticonvulsant screening (MES and scMet tests); conditions: in words
[21] = 300 mg/kg, four hours after administration
[22] = mice, i.p., from safety ratio TD3/ED97

CN1CCc2cc3c(cc2[C@H]1[C@@H]1OC(=O)c2c1ccc1c2OCO1)OCO3 [bicuculline]
ED97 [1]: 2.7 mg/kg

CCC1(c2ccccc2)C(=O)NC(=O)NC1=O [Phenobarbital, phenobarbital]
ED50 [2]: 11.6 mg/kg | effectiveness by the sc Strych test [3]: had to be given in toxic doses in order to protect; also recorded: effective in toxic doses | Slope, regression line, HD50 (righting reflex) ([4]; mice, i.p.): 8.41 | ED50 MES (mice, i.p.): 21.78 mg/kg | Time of Test / time of peak effect (TPE), MES (mice, i.p.): 1 h | ED50 MES (mice, p.o.): 20.09 mg/kg | effectiveness by the sc Bic test ([5]; Phase V, mice, i.p.): effective against sc Met, sc Bic, and sc Pic in nontoxic doses | effectiveness by the sc Pic test ([6]; Phase V, mice, i.p.): effective against sc Met, sc Bic, and sc Pic in nontoxic doses | TPE [7]: five | ED50 ([8]; ip, read-out: ED50 sc Met): 13.2 mg/kg | ED50 ([8]; po, read-out: ED50 scMet): 12.6 mg/kg | Time of Test / time of peak effect (TPE), sc Met ([8]; mice, i.p.): 1 h

Clc1ccc(N2N=NCC2c2ccncc2)cc1 (stereo not shown) [Compound 9, 1-(p-Chlorophenyl)-5-(4-pyridyl)-Δ^2-1,2,3-triazoline]
ED50 ([9]; Rattus norvegicus, po, rats): 266 mg/kg | anticonvulsant potency by MES, rats compared with mice ([9]; oral administration): no significant difference in the anticonvulsant potency | 97% protection in nontoxic doses, MES ([9]; rats, p.o.): do not provide 97% protection | ED50 ([2]; rats, p.o.): 278 mg/kg | anticonvulsant potency by sc Met, rats compared with mice ([2]; oral administration): no significant difference in the anticonvulsant potency | 97% protection in nontoxic doses, sc Met ([2]; rats, p.o.): do not provide 97% protection | effectiveness by the sc Strych test [3]: not effective against sc Strych; also recorded: ineffective after i.p. administration in mice by the sc Strych test | Slope, regression line, HD50 (righting reflex) ([4]; mouse, in vivo, ip): 4.27 | TD50 ([4]; mouse, in vivo, ip): 2050 mg/kg | Time of Test / time of peak toxicity, righting reflex ([4]; mouse, in vivo, ip): 24 h | selectivity (slope of regression line), 24-hour lethality [10]: lack of selectivity (flat regression lines) | margin between the minimal toxic dose and the 24-hour lethal dose ([10]; ip): probably not satisfactory | selectivity ratio ([10]; ip, 24-hour LD50, rotorod TD50, read-out: Ratio LD50/TD50): 1.88 | selectivity ratio ([10]; ip, 24-hour LD50, read-out: Ratio LD50/HD50): 1.04 | LD50 at 24 h ([10]; ip, read-out: LD50 (lethality)): 2130 mg/kg | toxicity profile ([11]; mice, i.p., 1TD50, 2TD50's and 4TD50's): decreased motor activity, ataxia, decreased respiration and cyanosis | toxicity at the end of 24 hours ([11]; mice, i.p., 2TD50's): One of two animals given 2TD50's was still ataxic and cyanotic at the end of 24 hours | dead 24 hours after drug administration ([11]; mice, i.p., 4TD50's): Both mice given 4TD50's of Compound 9 were dead 24 hours after drug administration | rotorod toxicity ([11]; mouse, in vivo, ip): one of two animals given 4TD50's displayed rotorod toxicity | gross examination of the peritoneal cavity [12]: an unevacuated stomach that was approximately three times normal size; an empty, flaccid small intestine; and a vermiform appendix markedly enlarged from flatus | absorption after oral administration [13]: adequately absorbed in mice after oral administration | activity by the MES test [21]: ineffective by the MES test (although the tonic extension was slow) | ED50 MES (mice, i.p.): 257.42 mg/kg | Protective Index (P.I.) = TD50/ED50, MES (mice, i.p.): 4.40 | Time of Test / time of peak effect (TPE), MES (mice, i.p.): 1/2 | mice protected, MES, nontoxic doses [22]: 97% | ED50 MES (mice, p.o.): 290.72 mg/kg | potency relative to phenobarbital, MES (mice, p.o.): 1/15 | potency relative to phenytoin, MES (mice, p.o.): 1/32 | 97% protection in nontoxic doses, oral (mice, p.o., MES): the same level of protection is obtained only in mice subjected to the MES test | oral ED50/i.p. ED50, MES (mouse, in vivo): 1.13 | safety ratio TD3/ED97, MES (mouse, in vivo): 1.13 | P.I. by the MES test (mouse, in vivo, po): 2.42 | profile of anticonvulsant activity, electroshock (nontoxic doses): ability to modify maximal electroshock seizure pattern | oral ED50/i.p. ED50, sc Met [14]: 3.50 | P.I. by the scMet test ([14]; po): 4.62 | P.I. derived from the sc Met test ([14]; sc): high | P.I. against sc Bic, times higher than that for phenobarbital ([5]; Phase V, mice, i.p.): fifty | effectiveness by the sc Bic test ([5]; Phase V, mice, i.p.): effective against sc Met, sc Bic, and sc Pic in nontoxic doses | P.I. derived from the sc Bic test ([5]; in words): high | P.I. by the sc Pic test compared with phenobarbital, ethosuximide and valproate ([6]; Phase V, mice, i.p.): compares favorably with those for phenobarbital, ethosuximide, and valproate | effectiveness by the sc Pic test ([6]; Phase V, mice, i.p.): lesser effectiveness by the sc Pic test | selectivity (slope of regression line), sc Pic test ([6]; in words): lack of selectivity (flat regression lines) | TPE (rotorod) ([15]; mouse, in vivo, ip): 12 and 20 | TPE by the rotorod test ([15]; mouse, in vivo, po): 24 h | deaths ([15]; mouse, in vivo, po, 600 mg/kg): 1 of 8 | deaths (of 8) ([15]; mouse, in vivo, po, 700 mg/kg): 6 | deaths ([15]; mouse, in vivo, po, 800 mg/kg): 1 of 8 | deaths ([15]; mouse, in vivo, po, 1000 mg/kg): 4 of 8 | neurotoxicity, rats compared with mice ([16]; rat, in vivo, po): significantly more neurotoxic in rats than it is in mice | toxicity relative to phenobarbital ([16]; rats, p.o.): one-fifth to one-sixth | selectivity ratio [17]: 0.62 | TD50 ([17]; ip): 1130 mg/kg | TD50 ([17]; po): 705 mg/kg | TD50 [18]: 394 mg/kg | TPE by the anticonvulsant tests ([19]; p.o.): one-half | TPE after oral compared with intraperitoneal administration ([19]; p.o. vs i.p.): significantly different from that obtained after intraperitoneal administration | TPE [7]: six | anticonvulsant potency [20]: most potent | anti-Metrazol activity [8, 21]: anti-Metrazol activity was present | ED50 ([8]; ip, read-out: ED50 sc Met): 43.5 mg/kg | ED50 ([8]; po, read-out: ED50 scMet): 153 mg/kg | effectiveness by the sc Met test ([8]; mice, i.p.): effective against sc Met, sc Bic, and sc Pic in nontoxic doses | safety ratio TD3/ED97, sc Met ([8]; mice): 3.44 | Protective Index (P.I.) = TD50/ED50, sc Met ([8]; mice, i.p.): 26.02 | Time of Test / time of peak effect (TPE), sc Met ([8]; mice, i.p.): 1/2 | mice protected, sc Met, nontoxic doses [8, 22]: 97% | 24-hour LD50/ED50 safety ratio by the sc Met test ([8]; mice, in words): high | profile of anticonvulsant activity, Metrazol ([8]; nontoxic doses): elevate the Metrazol seizure threshold in nontoxic doses

O=C1NC(=O)C(c2ccccc2)(c2ccccc2)N1 [Phenytoin, phenytoin]
animals protected, sc Strych test [3]: 50% | Slope, regression line, HD50 (righting reflex) ([4]; mice, i.p.): 14.03 | Time of Test / time of peak toxicity, righting reflex ([4]; mouse, in vivo, ip): 12 h | effectiveness by the sc Bic test ([5]; Phase V, mice, i.p.): ineffective against Metrazol, bicuculline, and picrotoxin | effectiveness by the sc Pic test ([6]; Phase V, mice, i.p.): ineffective against Metrazol, bicuculline, and picrotoxin | Time of Test / time of peak effect (TPE), Rotorod ([15]; mice, i.p.): 2 h | TPE by all tests ([19]; i.p.): 2 h | effectiveness by the sc Met test ([8]; mice, i.p.): ineffective against Metrazol, bicuculline, and picrotoxin | ED50 sc Met ([8]; mice, i.p., listed as phenytion): did not protect against subcutaneous Metrazol seizures
